Assays:
Adenosine receptor A2a = Adenosine receptor A2a (Homo sapiens, UniProt P29274); assay: DRUGMATRIX: Adenosine A2A radioligand binding (ligand: […]); assay type: cell membranes, HEK293, Membrane; conditions: hek293; Not Active = under 50% inhibition at 10 µM
[1] = DRUGMATRIX: GABAA, Muscimol, Central radioligand binding (ligand: [3H] Muscimol); assay type: cell membranes, Rattus norvegicus, Wistar, Brain, Membrane; conditions: Not Active = under 50% inhibition at 10 µM
[2] = DRUGMATRIX: Sodium/nucleoside co-transporter radioligand binding (ligand: nitrobenzylthioinosine); assay type: cell membranes, Cavia porcellus, Dunkin-Hartley, Cerebral cortex, Membrane; conditions: Not Active = under 50% inhibition at 10 µM
[3] = DRUGMATRIX: Platelet-Derived Growth Factor (PDGF) radioligand binding (ligand: [125I] PDGF); assay type: cell-based; conditions: nih3t3; Not Active = under 50% inhibition at 10 µM
Adenosine receptor A3 = molecular target: T1, Adenosine receptor A3 (Homo sapiens, UniProt P0DMS8); assay type: cell membranes, CHO-K1, Membrane;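 further: radioligand binding assay with AB-MECA serving as the labeled ligand; in other assays of this panel Not Active means under 50% inhibition at 10 µM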
T1 sequence (P0DMS8 whole entry): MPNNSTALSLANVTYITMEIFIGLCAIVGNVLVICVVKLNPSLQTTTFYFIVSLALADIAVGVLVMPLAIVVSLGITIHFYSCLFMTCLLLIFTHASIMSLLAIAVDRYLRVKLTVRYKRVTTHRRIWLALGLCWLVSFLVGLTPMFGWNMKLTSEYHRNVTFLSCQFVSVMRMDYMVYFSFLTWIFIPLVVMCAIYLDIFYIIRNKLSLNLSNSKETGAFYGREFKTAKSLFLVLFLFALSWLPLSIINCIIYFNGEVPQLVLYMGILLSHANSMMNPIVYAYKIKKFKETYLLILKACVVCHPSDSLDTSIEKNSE

[4] = molecular target: T2, Type-2 angiotensin II receptor (Homo sapiens, UniProt P50052); assay type: cell-based; conditions: cho-k1; further: in other assays of this panel Not Active means under 50% inhibition at 10 µM
T2 sequence (P50052 whole entry): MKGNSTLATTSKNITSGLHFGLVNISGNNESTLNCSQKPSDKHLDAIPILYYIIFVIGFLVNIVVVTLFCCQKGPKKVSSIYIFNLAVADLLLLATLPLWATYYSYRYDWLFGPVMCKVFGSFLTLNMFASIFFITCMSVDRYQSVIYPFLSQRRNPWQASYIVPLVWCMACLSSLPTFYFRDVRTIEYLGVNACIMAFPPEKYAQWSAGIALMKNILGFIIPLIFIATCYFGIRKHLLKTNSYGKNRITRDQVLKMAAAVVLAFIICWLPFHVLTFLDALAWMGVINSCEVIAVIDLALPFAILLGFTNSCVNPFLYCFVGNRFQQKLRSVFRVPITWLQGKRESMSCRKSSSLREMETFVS

Vasopressin V1a receptor = Vasopressin V1a receptor (Homo sapiens, UniProt P37288); assay type: cell membranes, Membrane; conditions: hek293; further: in other assays of this panel Not Active means under 50% inhibition at 10 µM
Vasopressin V1a receptor, sequence (P37288 whole entry): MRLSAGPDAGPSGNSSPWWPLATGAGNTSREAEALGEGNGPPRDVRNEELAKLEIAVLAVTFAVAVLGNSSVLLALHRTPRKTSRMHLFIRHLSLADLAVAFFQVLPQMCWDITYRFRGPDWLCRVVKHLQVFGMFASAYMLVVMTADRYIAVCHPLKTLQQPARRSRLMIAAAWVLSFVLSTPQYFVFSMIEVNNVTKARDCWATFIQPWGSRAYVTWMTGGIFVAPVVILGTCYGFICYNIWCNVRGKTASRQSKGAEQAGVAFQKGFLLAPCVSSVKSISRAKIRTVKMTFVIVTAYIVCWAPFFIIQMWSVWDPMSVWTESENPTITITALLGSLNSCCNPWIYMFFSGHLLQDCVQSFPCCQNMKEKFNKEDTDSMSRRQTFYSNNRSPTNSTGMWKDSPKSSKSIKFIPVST

Substance-P receptor = Substance-P receptor (Homo sapiens, UniProt P25103); assay type: cell membranes, Membrane; conditions: cho; further: in other assays of this panel Not Active means under 50% inhibition at 10 µM
Substance-P receptor, sequence (P25103 whole entry): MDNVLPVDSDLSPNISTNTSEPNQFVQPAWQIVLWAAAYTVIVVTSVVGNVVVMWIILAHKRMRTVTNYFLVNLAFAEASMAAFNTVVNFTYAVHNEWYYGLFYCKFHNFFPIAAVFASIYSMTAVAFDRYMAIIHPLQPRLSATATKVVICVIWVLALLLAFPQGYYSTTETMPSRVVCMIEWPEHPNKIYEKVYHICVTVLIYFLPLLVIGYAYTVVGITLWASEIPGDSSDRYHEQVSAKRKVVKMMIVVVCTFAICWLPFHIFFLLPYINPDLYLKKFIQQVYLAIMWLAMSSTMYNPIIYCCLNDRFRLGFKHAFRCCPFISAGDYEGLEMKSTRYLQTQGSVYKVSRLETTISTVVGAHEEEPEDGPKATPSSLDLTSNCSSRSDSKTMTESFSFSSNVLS

[5] = DRUGMATRIX: Glutamate, NMDA, Phencyclidine radioligand binding (ligand: [3H] TCP); assay type: cell membranes, Rattus norvegicus, Wistar, Cerebral cortex, Membrane; conditions: Not Active = under 50% inhibition at 10 µM
[6] = molecular target: 5-hydroxytryptamine receptor 1B (Rattus norvegicus, UniProt P28564); assay type: cell membranes, Wistar, Cerebral cortex, Membrane; further: in other assays of this panel Not Active means under 50% inhibition at 10 µM
5-hydroxytryptamine receptor 1B, sequence (P28564 whole entry): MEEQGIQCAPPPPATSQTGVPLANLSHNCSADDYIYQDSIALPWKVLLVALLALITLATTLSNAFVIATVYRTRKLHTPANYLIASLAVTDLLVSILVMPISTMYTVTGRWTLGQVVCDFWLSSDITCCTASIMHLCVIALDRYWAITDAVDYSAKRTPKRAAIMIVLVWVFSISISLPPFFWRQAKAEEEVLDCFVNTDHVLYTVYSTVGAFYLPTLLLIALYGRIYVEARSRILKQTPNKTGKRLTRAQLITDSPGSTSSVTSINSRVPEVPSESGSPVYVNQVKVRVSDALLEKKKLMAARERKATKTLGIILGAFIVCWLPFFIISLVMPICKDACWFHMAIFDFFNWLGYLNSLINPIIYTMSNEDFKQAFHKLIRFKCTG

Adenosine receptor A2a, sequence (P29274 whole entry): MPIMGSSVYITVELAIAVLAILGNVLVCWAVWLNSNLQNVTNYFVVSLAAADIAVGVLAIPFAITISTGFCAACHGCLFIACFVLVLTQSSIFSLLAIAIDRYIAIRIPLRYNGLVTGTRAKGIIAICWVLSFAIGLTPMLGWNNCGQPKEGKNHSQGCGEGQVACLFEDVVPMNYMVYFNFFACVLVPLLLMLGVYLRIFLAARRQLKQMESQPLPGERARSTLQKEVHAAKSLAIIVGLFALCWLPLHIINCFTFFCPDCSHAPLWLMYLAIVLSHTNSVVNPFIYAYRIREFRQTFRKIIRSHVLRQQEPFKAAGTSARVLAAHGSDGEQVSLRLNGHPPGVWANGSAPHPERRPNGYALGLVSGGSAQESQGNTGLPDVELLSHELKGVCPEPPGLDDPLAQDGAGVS

| SMILES | IC50 (Adenosine receptor A2a) | IC50 [1] | Ki [1] | IC50 ([2]; read-out: IC50) | Ki ([2]; read-out: Ki) | IC50 [3] | Ki [3] | IC50 (Adenosine receptor A3; cho-k1) | IC50 [4] | IC50 (Vasopressin V1a receptor) | IC50 (Substance-P receptor) | IC50 [5] | Ki [5] | IC50 [6] | IC50 [2] | Ki [2] | IC50 (Adenosine receptor A3; read-out: IC50) | Ki (Adenosine receptor A3; read-out: Ki) | IC50 ([6]; read-out: IC50) | Ki ([6]; read-out: Ki) |
| --- | --- | --- | --- | --- | --- | --- | --- | --- | --- | --- | --- | --- | --- | --- | --- | --- | --- | --- | --- | --- |
| COCCOC(=O)C1=C(C)NC(C)=C(C(=O)OC(C)C)C1c1cccc([N+](=O)[O-])c1 (stereo not drawn) [NIMODIPINE] | Not Active | Not Active | Not Active | 1270 nM | 433 nM | Not Active | Not Active | Not Active | Not Active | Not Active | Not Active | Not Active | Not Active | Not Active |  |  |  |  |  |  |
| CC(C)NCC(O)COc1cccc2ccccc12 (stereo not drawn) [PROPRANOLOL] | Not Active |  |  |  |  |  |  | Not Active | Not Active | Not Active | Not Active |  |  | Not Active |  |  |  |  |  |  |
| COCCCOc1ccnc(C[S+]([O-])c2nc3ccccc3[nH]2)c1C (stereo not drawn) [RABEPRAZOLE] | Not Active | Not Active | Not Active |  |  | Not Active | Not Active |  | Not Active | Not Active | Not Active | Not Active | Not Active | Not Active | Not Active | Not Active | 3220 nM | 1820 nM |  |  |
| O=C(c1ccc(OCCN2CCCCC2)cc1)c1c(-c2ccc(O)cc2)sc2cc(O)ccc12 [RALOXIFENE] |  | Not Active | Not Active |  |  | Not Active | Not Active | Not Active | Not Active | Not Active | Not Active | Not Active | Not Active |  | Not Active | Not Active |  |  | 1860 nM | 846 nM |
| CNC(=C[N+](=O)[O-])NCCSCc1ccc(CN(C)C)o1 [RANITIDINE] | Not Active | Not Active | Not Active |  |  | Not Active | Not Active | Not Active | Not Active | Not Active | Not Active | Not Active | Not Active | Not Active | Not Active | Not Active |  |  |  |  |
| CO[C@H]1/C=C/O[C@@]2(C)Oc3c(C)c(O)c4c(c3C2=O)C2=NC3(CCN(CC(C)C)CC3)NC2=C(NC(=O)/C(C)=C\C=C\[C@H](C)[C@H](O)[C@@H](C)[C@@H](O)[C@@H](C)[C@H](OC(C)=O)[C@@H]1C)C4=O [RIFABUTIN] | Not Active | Not Active | Not Active |  |  | Not Active | Not Active | Not Active | Not Active | Not Active | Not Active | Not Active | Not Active | Not Active | Not Active | Not Active |  |  |  |  |
| CC(C)c1nc(CN(C)C(=O)N[C@H](C(=O)N[C@@H](Cc2ccccc2)C[C@H](O)[C@H](Cc2ccccc2)NC(=O)OCc2cncs2)C(C)C)cs1 [RITONAVIR] | Not Active | Not Active | Not Active |  |  | Not Active | Not Active | Not Active | Not Active |  | Not Active | Not Active | Not Active | Not Active | Not Active | Not Active |  |  |  |  |
| CC(C)CC(N(C)C)C1(c2ccc(Cl)cc2)CCC1 (stereo not drawn) [SIBUTRAMINE] | Not Active | Not Active | Not Active |  |  | Not Active | Not Active | Not Active | Not Active | Not Active | Not Active | Not Active | Not Active | Not Active | Not Active | Not Active |  |  |  |  |
| [H]/N=C(/N)N[C@H]1[C@H](O)[C@@H](O)[C@H](O[C@@H]2O[C@@H](C)[C@](O)(C=O)[C@H]2O[C@@H]2O[C@@H](CO)[C@H](O)[C@@H](O)[C@@H]2NC)[C@@H](N/C(N)=N\[H])[C@@H]1O [STREPTOMYCIN] | Not Active | Not Active | Not Active |  |  | Not Active | Not Active | Not Active | Not Active | Not Active | Not Active | Not Active | Not Active | Not Active | Not Active | Not Active |  |  |  |  |

— ChEMBL document CHEMBL1909046, “DrugMatrix in vitro pharmacology data”
